Values of other authors as cited in paper PMC10379611 (International Journal of Molecular Sciences, 2023).

Conditions: recommended clinical dose of Paxlovid; cited from earlier work

For `CC(C)c1nc(CN(C)C(=O)N[C@H](C(=O)N[C@@H](Cc2ccccc2)C[C@H](O)[C@H](Cc2ccccc2)NC(=O)OCc2cncs2)C(C)C)cs1` [Ritonavir], the observed plasma concentrations is listed as 0.5 µM.
